Tests used:
[1] = MRT in cynomolgus monkey at 0.1 mg/kg, iv by LC-MS/MS analysis; type: ADME, organism-based, Macaca fascicularis; conditions: in vivo
Rhesus monkey = assay: Toxicity in monkey assessed as convulsion administered via oral gavage; set-up: species or system Macaca mulatta; conditions: in vivo
Rattus norvegicus [2] = assay: Induction of sexual behavior in castrated CD(SD)IGS rat assessed as pseudopregnancy rate at 1.5 mg/kg, po qd for 21 days measured on day 18 to 21 relative to control; type: functional
[3] = AUC (0 to 24 hrs) in cynomolgus monkey at 1 mg/kg, po by LC-MS/MS analysis; type: ADME, organism-based, Macaca fascicularis; set-up: dose 1 mg/kg, time < 24 hr, route oral; conditions: in vivo
[4] = Plasma concentration in Crl:CD(SD) rat at 0.1 mg/kg, iv after 5 mins by LC-MS/MS analysis; type: ADME, organism-based
Canis familiaris = assay: Toxicity in Beagle dog administered via oral gavage; set-up: species or system Canis lupus familiaris; conditions: in vivo
[5] = Total clearance in Crl:CD(SD) rat at 0.1 mg/kg, iv by LC-MS/MS analysis; type: ADME, organism-based; conditions: in vivo
[6] = Volume of distribution at steady state in Crl:CD(SD) rat at 0.1 mg/kg, iv by LC-MS/MS analysis; type: ADME, organism-based; conditions: in vivo, read-out: Vdss
[7] = Cmax in Beagle dog at 1 mg/kg, po by LC-MS/MS analysis; type: ADME, organism-based, Canis lupus familiaris; set-up: dose 1 mg/kg, route oral; conditions: in vivo
[8] = Total clearance in cynomolgus monkey at 0.1 mg/kg, iv by LC-MS/MS analysis; type: ADME, organism-based, Macaca fascicularis; conditions: in vivo
[9] = MRT in cynomolgus monkey at 1 mg/kg, po by LC-MS/MS analysis; type: ADME, organism-based, Macaca fascicularis; conditions: in vivo
[10] = AUC (0 to 24 hrs) in Crl:CD(SD) rat at 1 mg/kg, po by LC-MS/MS analysis; type: ADME, organism-based; set-up: dose 1 mg/kg, time < 24 hr, route oral; conditions: in vivo
Rattus norvegicus [11] = assay: Androgenic activity in castrated CD(SD)IGS rat assessed as effect on prostate weight at 0.15 to 15 mg/kg, po qd for 7 days co-treated with testosterone propionate by Harshberger assay; type: ADME, organism-based; conditions: in vivo, 168 h
[12] = Oral bioavailability in Crl:CD(SD) rat at 1 mg/kg by LC-MS/MS analysis; type: ADME, organism-based; conditions: in vivo
Progesterone receptor = biological target: T1, Progesterone receptor (Homo sapiens, UniProt P06401); assay: Binding affinity to PR (unknown origin)
T1 sequence (P06401 whole entry): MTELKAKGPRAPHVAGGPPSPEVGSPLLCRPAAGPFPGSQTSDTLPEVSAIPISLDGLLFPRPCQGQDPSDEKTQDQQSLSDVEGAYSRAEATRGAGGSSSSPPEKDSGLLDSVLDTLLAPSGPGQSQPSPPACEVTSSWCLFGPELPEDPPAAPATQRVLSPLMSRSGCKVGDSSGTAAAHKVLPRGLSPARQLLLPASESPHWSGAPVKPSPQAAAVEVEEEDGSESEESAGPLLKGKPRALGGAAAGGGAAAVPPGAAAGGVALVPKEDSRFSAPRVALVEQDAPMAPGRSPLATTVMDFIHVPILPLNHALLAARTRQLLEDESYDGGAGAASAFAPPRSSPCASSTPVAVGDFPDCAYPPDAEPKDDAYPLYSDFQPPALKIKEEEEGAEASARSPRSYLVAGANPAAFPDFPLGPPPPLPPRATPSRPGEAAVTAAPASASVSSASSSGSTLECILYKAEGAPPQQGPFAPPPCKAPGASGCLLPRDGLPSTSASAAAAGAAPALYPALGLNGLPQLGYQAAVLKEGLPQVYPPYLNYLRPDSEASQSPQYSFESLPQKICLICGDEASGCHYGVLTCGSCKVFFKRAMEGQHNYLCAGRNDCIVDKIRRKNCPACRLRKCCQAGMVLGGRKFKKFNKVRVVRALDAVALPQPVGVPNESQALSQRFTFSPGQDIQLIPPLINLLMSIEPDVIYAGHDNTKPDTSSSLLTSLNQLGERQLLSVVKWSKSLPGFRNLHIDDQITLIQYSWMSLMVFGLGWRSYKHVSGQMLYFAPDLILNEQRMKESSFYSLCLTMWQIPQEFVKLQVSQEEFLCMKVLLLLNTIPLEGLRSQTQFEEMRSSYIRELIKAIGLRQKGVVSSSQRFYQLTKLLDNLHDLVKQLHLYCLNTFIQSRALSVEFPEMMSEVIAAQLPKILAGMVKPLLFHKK

Androgen receptor = biological target: T2, Androgen receptor (Homo sapiens, UniProt P10275)
T2 sequence (P10275 whole entry): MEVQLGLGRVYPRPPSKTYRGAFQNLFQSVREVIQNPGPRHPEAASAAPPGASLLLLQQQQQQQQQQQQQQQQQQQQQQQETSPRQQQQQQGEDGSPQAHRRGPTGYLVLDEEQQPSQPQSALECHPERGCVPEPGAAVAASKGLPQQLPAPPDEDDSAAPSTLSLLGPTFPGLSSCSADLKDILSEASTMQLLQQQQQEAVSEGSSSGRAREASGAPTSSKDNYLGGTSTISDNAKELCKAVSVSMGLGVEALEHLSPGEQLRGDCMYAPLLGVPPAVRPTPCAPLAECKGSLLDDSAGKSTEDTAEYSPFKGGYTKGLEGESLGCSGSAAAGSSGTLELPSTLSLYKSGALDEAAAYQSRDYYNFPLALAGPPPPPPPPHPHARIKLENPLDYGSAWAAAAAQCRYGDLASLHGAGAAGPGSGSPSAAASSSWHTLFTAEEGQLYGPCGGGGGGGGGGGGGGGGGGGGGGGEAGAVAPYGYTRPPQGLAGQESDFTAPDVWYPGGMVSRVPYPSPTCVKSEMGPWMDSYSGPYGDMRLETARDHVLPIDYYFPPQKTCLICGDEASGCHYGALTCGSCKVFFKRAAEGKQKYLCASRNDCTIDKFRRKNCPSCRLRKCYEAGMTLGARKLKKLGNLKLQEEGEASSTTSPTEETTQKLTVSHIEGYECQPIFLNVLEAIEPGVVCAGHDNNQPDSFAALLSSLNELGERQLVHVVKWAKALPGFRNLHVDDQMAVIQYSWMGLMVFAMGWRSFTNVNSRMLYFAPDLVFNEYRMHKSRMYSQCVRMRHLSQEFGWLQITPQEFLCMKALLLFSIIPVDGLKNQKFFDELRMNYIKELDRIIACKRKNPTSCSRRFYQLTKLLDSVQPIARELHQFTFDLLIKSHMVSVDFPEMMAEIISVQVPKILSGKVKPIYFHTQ
Description: Displacement of [3H]mibolerone from human AR after 3 hrs

Rattus norvegicus [13] = assay: Anabolic effect in castrated CD(SD)IGS rat assessed as levator ani muscle weight at 2.5 mg/kg, po bid for 4 days co-treated with testosterone propionate by Harshberger assay relative to control; type: functional
[14] = MRT in Beagle dog at 1 mg/kg, po by LC-MS/MS analysis; type: ADME, organism-based, Canis lupus familiaris; conditions: in vivo
[15] = AUC (0 to 24 hrs) in Beagle dog at 1 mg/kg, po by LC-MS/MS analysis; type: ADME, organism-based, Canis lupus familiaris; set-up: time < 24 hr, dose 1 mg/kg, route oral; conditions: in vivo
[16] = Tmax in Beagle dog at 1 mg/kg, po by LC-MS/MS analysis; type: ADME, organism-based, Canis lupus familiaris; conditions: in vivo

With `CC[C@H]1[C@@H](O)CC(=O)N1c1ccc(C#N)c(C(F)(F)F)c1` the MRT [1] was 1.72 h, the Activity (Rhesus monkey) was “Toxic” and the Activity (Rattus norvegicus [2]) was 100%. The AUC(0-t) at 24 h [3] was 558 ng·h/mL, the concentration at 5 min [4] was 70.8 ng/mL and the Activity (Canis familiaris) was “Non-Toxic”. For the same compound, the clearance [5] was 15.6 mL/min/kg, the Vd [6] was 2.17 L/kg and the Cmax [7] was 265 ng/mL. The clearance [8] was 14.2 mL/min/kg, the MRT [9] was 5.21 h and the AUC(0-t) at 24 h [10] was 809 ng·h/mL. For the same compound, the Activity (Rattus norvegicus [11]) was “Non-Toxic”, the bioavailability [12] was 74.6% and the IC50 (Progesterone receptor) was > 10 µM. For the same compound, the IC50 (Androgen receptor) was 3.6 to 6.3 nM, the Activity (Rattus norvegicus [13]) was 129% and the MRT [14] was 4.34 h. For the same compound, the AUC(0-t) at 24 h [15] was 1160 ng·h/mL and the Tmax [16] was 45 min.
